According to ChEMBL document CHEMBL5136999, “Contemporary Medicinal Chemistry Strategies for the Discovery and Development of Novel HIV-1 Non-nucleoside Reverse Transcriptase Inhibitors” (J Med Chem, 2022):

How the values were obtained:
[1] = system: Human immunodeficiency virus 1; test: Antiviral activity against HIV-1 harboring K101P mutant infected in human MT2 cells assessed as protection against virus-induced cytopathicity by MTT assay; format: functional, organism-based; conditions: Human immunodeficiency virus 1, MT2
[2] = system: Human immunodeficiency virus 1; test: Antiviral activity against HIV-1 harboring K103N/Y181C mutant infected in human MT2 cells assessed as protection against virus-induced cytopathicity by MTT assay; format: functional, organism-based; conditions: Human immunodeficiency virus 1, MT2
[3] = system: Human immunodeficiency virus 1; test: Antiviral activity against wild type HIV-1 IIIB infected in human MT2 cells assessed as protection against virus-induced cytopathicity by MTT assay; format: functional, organism-based; conditions: Human immunodeficiency virus 1, IIIB
[4] = system: Human immunodeficiency virus 1; test: Antiviral activity against HIV-1 harboring Y181C mutant infected in human MT2 cells assessed as protection against virus-induced cytopathicity by MTT assay; format: functional, organism-based; conditions: Human immunodeficiency virus 1, MT2
[5] = Cytotoxicity against human MT2 cells assessed as cell viability; format: toxicity, cell-based
[6] = system: Human immunodeficiency virus 1; test: Antiviral activity against wild type HIV-1 IIIB infected in human MT2 cells assessed as protection against virus-induced cytopathicity; format: functional, organism-based; conditions: Human immunodeficiency virus 1, IIIB
[7] = system: Human immunodeficiency virus 1; test: Antiviral activity against HIV-1 harboring K103N/Y181C mutant infected in human MT2 cells assessed as protection against virus-induced cytopathicity; format: functional, organism-based; conditions: Human immunodeficiency virus 1, MT2
[8] = Cytotoxicity against human MT4 cells assessed as cell viability by MTT assay; format: toxicity, cell-based
[9] = system: Human immunodeficiency virus 1; test: Antiviral activity against wild type HIV-1 IIIB infected in human MT4 cells assessed as protection against virus-induced cytopathicity by MTT assay; format: functional, organism-based; conditions: Human immunodeficiency virus 1, IIIB
[10] = Oral bioavailability in Sprague-Dawley rat at 5 mg/kg measured up to 24 hrs by LC-MS analysis; format: ADME, organism-based; conditions: in vivo
[11] = system: Human immunodeficiency virus 1; test: Antiviral activity against HIV-1 harboring E138K mutant infected in human MT4 cells assessed as protection against virus-induced cytopathicity by MTT assay; format: functional, organism-based; conditions: Human immunodeficiency virus 1, MT4
[12] = system: Human immunodeficiency virus 1; test: Antiviral activity against HIV-1 harboring K103N mutant infected in human MT4 cells assessed as protection against virus-induced cytopathicity by MTT assay; format: functional, organism-based; conditions: Human immunodeficiency virus 1, MT4
[13] = Metabolic stability in rat liver microsomes assessed as clearance; format: ADME, Microsome; conditions: read-out: CLH
[14] = Metabolic stability in human liver microsomes assessed as clearance; format: ADME, Microsome; conditions: read-out: CLH
HOS = test: Cytotoxicity against human HOS cells assessed as reduction in cell viability measured after 48 hrs; format: functional

N#Cc1cc2c(Oc3ccccc3OCCn3ccc(=O)[nH]c3=O)cccn2c1
EC50 [1]: 1 nM
EC50 [2]: 11 nM
EC50 [3]: 380 nM
EC50 [4]: 310 nM

Cc1c(Oc2ccccc2OCCn2ccc(=O)[nH]c2=O)cc(Cl)c2ccc(C#N)cc12
CC50 [5]: > 100000 nM
EC50 [6]: 6.2 nM
EC50 [7]: 280 nM

Cc1c(Oc2ccccc2OCCn2ccc(=O)[nH]c2=O)cc(N(C)C(=O)CCl)c2ccc(C#N)cc12
EC50 [6]: 580 nM
EC50 [7]: 570 nM

C=CC(=O)N(C)c1cc(Oc2ccccc2OCCn2ccc(=O)[nH]c2=O)c(C)c2cc(C#N)ccc12
EC50 [6]: 560 nM
EC50 [7]: 500 nM

Cc1cc(/C=C/C#N)cc([N+](=O)[O-])c1Nc1nc(Nc2ccc(C#N)cc2)nc2ccccc12
CC50 [8]: 6140 nM
EC50 [9]: 3.4 nM
bioavailability [10]: 16.5%
EC50 [11]: 4.3 nM
EC50 [12]: 3.6 nM
microsomal CLint [13]: 33.2 µL/min/mg
microsomal CLint [14]: 34.5 µL/min/mg

Cc1cc(/C=C/C#N)cc(C)c1-n1cnc2cnc(Nc3ccc(C#N)cc3)nc21
CC50 (HOS): 42000 nM

Cc1cc(/C=C/C#N)cc([N+](=O)[O-])c1Nc1nc(Nc2ccc(C#N)cc2)nc2ccc(Cl)cc12
CC50 [8]: 3950 nM
EC50 [9]: 10.6 nM
bioavailability [10]: 15.5%
EC50 [11]: 17.7 nM
EC50 [12]: 10.2 nM
microsomal CLint [13]: 30.6 µL/min/mg
microsomal CLint [14]: 14.4 µL/min/mg

Cc1cc(/C=C/C#N)cc(C)c1Nc1ncc2ncn(-c3ccc(C#N)cc3)c2n1
CC50 (HOS): 21000 nM

O=C1Nc2ccc(Cl)cc2[C@@](C#CC2CC2)(C(F)(F)F)O1 [EFAVIRENZ]
CC50 [8]: > 40200 nM
EC50 [9]: 3.2 nM
EC50 [12]: 147 nM

Cc1cc(C#N)cc(C)c1Oc1nc(Nc2ccc(C#N)cc2)nc(N)c1Br [ETRAVIRINE]
CC50 [8]: > 4620 nM
EC50 [11]: 10.9 nM
EC50 [12]: 3.5 nM

Cc1ccnc2c1NC(=O)c1cccnc1N2C1CC1 [NEVIRAPINE]
EC50 [2]: > 100000 nM
EC50 [4]: > 100000 nM

Cc1cc(/C=C/C#N)cc(C)c1Nc1ccnc(Nc2ccc(C#N)cc2)n1 [RILPIVIRINE]
CC50 (HOS): 10000 nM
